Patent US20230266302A1, “SYNTHESIS AND USE OF N-BENZYL SULFONAMIDES” (THE UNIVERSITY OF TULSA, priority 2020, published 2023)

How the values were obtained:
Test in all cases: Cytotoxicity testing, CellTiter-Blue assay (FIG. 9)
Type in all cases: cell-based
Conditions in all cases: 100 μM, 24 hour compound incubation, result in words
H293 (kidney cancer) = system: H293 (kidney cancer)
Procedure: (§1) The cytotoxicity tests were carried out in the following manner. Living cells are known to convert resazurin to the fluorescent compound resorufin. Test systems which rely upon this reaction are commercially available. One such test is known at the Cell Titer Blue Cell Viability test assay from Promega. Cell cultures for each of the identified cancer lines were obtained from ATCC and maintained in Dulbecco's Modified Eagle Medium (DMEM) supplemented with 10% fetal bovine serum (FBS) and pen/strep. As known to those skilled in the art, DMEM typically includes the components identified below.
(§2) The test method provides for incubating the cell cultures at 37° C. Additionally, the cell cultures are kept under an atmosphere containing 5% CO2. After allowing for proliferation of the cells, the cells were distributed across a plurality of test cells containing from 100 μL DMEM plus 10% FBS and allowed to attach to the surface of the cells. Typically, the time for attachment will require about 12 hours to about 18 hours. Following attachment, the cells were treated with either a solvent control or the N-benzyl sulfonamide compound of interest dissolved in a suitable solvent such as but not limited to DMSO. Typically, about 18 hours to about 36 hours are required to determine the effect of the N-benzyl sulfonamide compound of interest on cell viability. Following treatment of the cells with the N-benzyl sulfonamide or control, the toxicity of the compound to the cells will be determined by addition of 10 μl of CellTiter-Blue reagent, i.e. resazurin. Typically, the resazurin is added between about 18 hours to about 36 hours after treating the cells with the N-benzyl sulfonamides or the control. The cells are allowed to consume and convert the resazurin to resorufin for about one to four hours. Subsequently, the fluorescence of […] is measured by excitation at 560 nm and recording the emission at 590 nm within an instrument configured to measure fluorescence intensity. Two commercially available systems are the BioTek Cytation 5 plate reader and the Promega Glomax Multi+detection system. […] The method for determining IC50 values is well known in the art and will not be discussed further. As known to those skilled in the art, IC50 is a quantitative measure that indicates how much of a particular inhibitory substance (e.g. drug) is needed to inhibit, in vitro, a given biological process or biological component by 50%. Therefore, each N-benzyl sulfonamide will be tested over a range of concentrations. Typically, the concentration ranges will be: 6.25 μM, 12.5 μM, 25 μM, 50 μM, and 100 μM. The control in this method is normally dimethyl […] (DMSO) or other solvent suitable for dissolving the compounds to be tested. FIG. 8 depicts the % cell viability for the indicated compounds depicted in FIG. 7.
(§3) The Table of FIG. 9 provides the results of cytotoxicity testing a 100 μM concentration of compounds 2, 5-9, 11-12, 14, 16, 18-22 of FIG. 7 against the indicated cancer cell lines using CellTiter-Blue assay with 24 hour compound incubation time. FIG. 9 reflects the percent reduction in cell viability resulting from the treatment of the indicated cancer cell lines with the indicated compounds. As indicated by the boxed values in FIG. 9, compounds 2, 5, and 6 would be considered effective against H293. […] The Table of FIG. 10 provides a comparison of the IC50 values of select compounds from FIG. 7 to the IC50 values of two known anti-cancer sulfonamides, ABT-751 and Indisulam. As indicated by FIG. 10, the identified compounds performed remarkably better than the known anti-cancer agents. Thus, the identified compounds are expected to have greater anti-cancer potency.

HeLa (cervical cancer) = system: HeLa (cervical cancer)
Procedure: as §1, §2, §3

[1] = system: MCF10A (non-cancerous breast)
Procedure: as §1, §2, §3

NCI-H196 (lung cancer) = system: NCI-H196 (lung cancer)
Procedure: as §1, §2, §3

SMILES | percent reduction in cell viability, H293 (H293 (kidney cancer)) | percent reduction in cell viability, HeLa (HeLa (cervical cancer)) | percent reduction in cell viability, MCF10A [1] | percent reduction in cell viability, NCI-H196 (NCI-H196 (lung cancer))
O=S(=O)(NCc1c[nH]c2ccccc12)c1ccc(Cl)cc1 [Compound 2, N-[(1H-indol-3-yl)methyl]-4-chlorobenzenesulfonamide] | effective |  |  | 
Cc1ccc(S(=O)(=O)NCc2c[nH]c3cccc(Br)c23)cc1 [Compound 5, N-[(4-bromo-1H-indol-3-yl)methyl]-4-methylbenzenesulfonamide] | effective | displayed effectiveness | displayed effectiveness | displayed effectiveness
Cc1cccc2c(CNS(=O)(=O)c3ccccc3)c[nH]c12 [Compound 6, N-[(7-methyl-1H-indol-3-yl)methyl]benzenesulfonamide] | effective |  |  | 
